`Clc1ccc(C(c2ccc(Cl)cc2)C(Cl)(Cl)Cl)cc1` yielded a log10 Henry constant (atm·m³/mol) of -5.08, a log10 Koa of 9.82, a log10 Koc (L/kg) of 5.31 and a log10 vapour pressure (mmHg) of -6.8. The melting point amounted to 108 °C and the ready biodegradability entry was “not readily biodegradable”.
Compound `C=CC=CC(=O)O` yielded a melting point of 79 °C.
Take `c1ccc(Cn2cncn2)cc1`: the melting point turned out to be 49 °C.
`C[Si](C)(C)CCCCl` displayed a boiling point of 151 °C.
The compound `C/C=C(/C)CCC` displayed a boiling point of 95.6 °C and a melting point of -118 °C.
Consider `O=[N+]([O-])c1cccc2cccnc12`, for which the melting point was 90 °C.
On the same count and under the same terms, then `Cc1cc(O)c2c(O)c3c(O)cccc3cc2c1`, with 204 °C.
Same read-out and setting: then `C[C@@H]1NC(=O)N[C@@H]1CCCCCC(=O)O`, with 157 °C.
For the compound `CCc1ccc(C)o1`, the boiling point worked out at 118 °C.
The compound `CC1(C)C(=O)NC(=O)N1CO` registered a melting point of 100 °C.
Compound `COc1cc(C)cc(OC)c1` had a boiling point of 244 °C.
`CCC(C(N)=O)c1ccccc1` (configuration not stated): the melting point came to 86 °C.
Compound `CCC=C(C)CO` gave a boiling point of 168 °C.
`CNC(N)=S` came in with a melting point of 120 °C.
Compound `C=COC(=O)C(C)C` yielded a boiling point of 104 °C.
In turn, `CN(CC(=O)N1CCOCC1)Cc1c(Cl)cccc1NC(=O)c1ccccc1` gave a melting point of 123 °C.
Regarding `c1ccc(-c2ccc(-c3ccccc3)cc2)cc1`, the boiling point was 376 °C, the log10 vapour pressure (mmHg) is -7, the melting point is 210 °C and the ready biodegradability entry was “not readily biodegradable”.
In the case of `FC(F)=C(F)C(F)(F)C(F)(F)C(F)(F)C(F)(F)F`, the boiling point was determined as 57 °C.
With `Oc1cc(O)cc(O)c1`, the melting point turned out to be 218 °C and the ready biodegradability result is recorded as “readily biodegradable”.
Turning to `Cc1ccc(C)c(C)c1C`, the boiling point is 205 °C, the log10 biodegradation half-life (days) came to 0.602, the log10 vapour pressure (mmHg) was -0.443 and the melting point is -6.2 °C.
Compound `CCCCOCCOC(=O)C(C)Oc1ccc(Cl)cc1Cl` (configuration not stated) displayed a log10 Koc (L/kg) of 3.
As to `CN1CCc2cc3c(cc2[C@H]1[C@@H]1OC(=O)c2c1ccc1c2OCO1)OCO3`, the melting point is 194 °C.
The compound `NCCN` registered a boiling point of 117 °C, a log10 Henry constant (atm·m³/mol) of -8.76, a log10 vapour pressure (mmHg) of 1.08 and a melting point of 11.1 °C. Also, the ready biodegradability entry is “readily biodegradable”.
In the case of `O=c1oc2ccccc2c(O)c1C1CC(c2ccc(-c3ccc(Br)cc3)cc2)Cc2ccccc21` (configuration not stated), the melting point turned out to be 230 °C.
With `CCC1(C)CCCC1`, the boiling point was 122 °C and the melting point is -144 °C.
With `CC(C)(c1cc(Br)c(OCC(Br)CBr)c(Br)c1)c1cc(Br)c(OCC(Br)CBr)c(Br)c1` (configuration not stated), the ready biodegradability entry is given as “not readily biodegradable”.
As to `CN(C)N`, the boiling point came to 63.9 °C, the log10 vapour pressure (mmHg) was determined as 2.21, the melting point was -58 °C and the ready biodegradability entry is “not readily biodegradable”.
`Cc1cccc(C(C)(C)C)c1` returned a boiling point of 189 °C and a melting point of -41.4 °C.
Take `O=C(O)c1ccc(O)c(C(=O)O)c1`: the melting point amounted to 310 °C.
As for `CC(C)(Br)C(=O)Br`, the boiling point is 163 °C.
For the compound `SC1CCCCC1`, the boiling point came out at 159 °C and the log10 vapour pressure (mmHg) came to 0.598.
As for `CC1(C)O[C@@H]2C[C@H]3[C@@H]4CCC5=CC(=O)C=C[C@]5(C)[C@H]4[C@@H](O)C[C@]3(C)[C@]2(C(=O)CO)O1`, the melting point was determined as 274 °C.
Compound `COC(=O)c1ccc([N+](=O)[O-])cc1` returned a melting point of 95 °C.
Regarding `CCCCCCCCCCCCCO`, the log10 vapour pressure (mmHg) was -3.36, the melting point amounted to 32.5 °C and the ready biodegradability entry is “readily biodegradable”.
For the compound `N#CC=Cc1ccco1`, the melting point was 38 °C.
On the same count and under the same terms, with `N#C[S-].[NH4+]` the figure was 150 °C.
In the case of `CCCCCCCCCl`, the boiling point was 182 °C, the log10 vapour pressure (mmHg) was -0.0223, the melting point was -57.8 °C and the ready biodegradability entry was “readily biodegradable”.
Consider `CC(C)N1C(=O)c2ccccc2NS1(=O)=O`, for which the log10 Koc (L/kg) amounted to 1.52 and the melting point was determined as 138 °C.
In turn, `CCCCCCCCCCCCCCCCCCCCCC(=O)O` showed a melting point of 81 °C.
As to `CCCC(Br)C(=O)OCC` (configuration not stated), the boiling point was 191 °C.
The compound `O=C1C(=Cc2ccccc2)CCCC1=Cc1ccccc1` gave a melting point of 118 °C.
On to `O=C[C@@H]1C[C@@H]2[C@@H]3[C@H]1[C@@]1(Cl)C(Cl)(Cl)[C@]3(Cl)[C@@]3(Cl)[C@@H]2[C@]31Cl`, for which the log10 vapour pressure (mmHg) is -6.7.
For `CCOC(=O)n1ccn(C)c1=S`, the melting point came to 124 °C.
Compound `COC(=O)c1c(C)cc(OC(=O)c2c(C)cc(O)c(C=O)c2O)c(C)c1O` registered a melting point of 195 °C.
The compound `COC(CC(OC)OC)OC` gave a boiling point of 183 °C.
In turn, `CCOC(=O)CNc1nc(Cl)nc(NC(C)C)n1` returned a melting point of 110 °C.
Compound `CCCNc1ccccc1` returned a boiling point of 222 °C.
With `OCC(O)CO`, the boiling point was 290 °C, the log10 Henry constant (atm·m³/mol) was -7.76, the log10 vapour pressure (mmHg) is -3.77 and the melting point was 18.2 °C. Further, the ready biodegradability entry was “readily biodegradable”.
Turning to `CCCCCC(C)OC(=O)COc1ccc(Cl)c2cccnc12` (configuration not stated), the log10 vapour pressure (mmHg) was -7.4 and the melting point amounted to 69.4 °C.
Consider `BrCCCBr`, for which the boiling point was 167 °C, the log10 Henry constant (atm·m³/mol) was -3.05, the log10 vapour pressure (mmHg) stood at 0.134 and the melting point is -34.2 °C. The ready biodegradability entry was “not readily biodegradable”.
As for `CC(C)(C)N`, the boiling point turned out to be 45 °C, the log10 vapour pressure (mmHg) turned out to be 2.57, the melting point is -72.7 °C and the ready biodegradability result is reported as “not readily biodegradable”.

A word on the melting point: it is the temperature of the solid-liquid transition. For orientation: boiling point means the temperature at which the vapour pressure of the liquid equals the pressure above it.

Source of the values: the OPERA property sets (Mansouri et al. 2018).
